# Assays:
# NCI 60 cell line panel = test: NCI 60 cell line screen, whole panel; type: cell-based; settings: for inhibition at 10 µM: one dose 10 μM, mean over the 60 cell lines, read-out: mean growth inhibition; for mean Growth %: one dose 10 µM, mean over the cell lines
# Experimental: The antiproliferative effects of selected compounds 33, 37 and 43 were initially evaluated in the NCI 60 cell line screen at 10 μM concentration (see Supplementary Materials Table S3). […] . […] .
# Compound 33 was next selected for evaluation in the NCI 60 cell line five-dose screen. The GI50 (50% growth inhibition), TGI (total growth inhibition) and LC50 (50% lethal concentration) were determined in the NCI panel of 60 cell lines, using the sulphorhodamine B (SRB) protein assay (Table 5). The GI50 value provides the growth inhibition of the selected compound, while the cytotoxic effect is evaluated in the LC50 value. […] . […] . Glioblastoma is an aggressive and fast-growing brain tumour with a median survival time of 9–16 months from diagnosis, and these tumours quickly evolve resistance to temozolomide chemotherapy, which is the only FDA-approved treatment. […] . Further mechanistic and cellular studies were carried out and are described below.
# (§1) aData obtained from NCI in vitro human tumour cell screen 1 dose assay (10 µM). 33 (NCI
# HCT-116 = test: NCI 60 cell line screen, Colon; type: cell-based, human; settings: one dose 10 µM; for inhibition at 10 µM: Homo sapiens
# MALME-3M = test: NCI 60 cell line screen, Melanoma; type: cell-based, human; settings: one dose 10 µM; for inhibition at 10 µM: Homo sapiens
# MOLT-4 = test: NCI 60 cell line screen, Leukaemia; type: cell-based, human; settings: one dose 10 µM; for inhibition at 10 µM: Homo sapiens
# ACHN = test: NCI 60 cell line screen, Renal; type: cell-based, human; settings: one dose 10 µM; for inhibition at 10 µM: Homo sapiens
# HS 578T = test: NCI 60 cell line screen, Breast; type: cell-based, human; settings: one dose 10 µM; for inhibition at 10 µM: Homo sapiens
# RPMI-8226 = test: NCI 60 cell line screen, Leukaemia; type: cell-based, human; settings: one dose 10 µM; for inhibition at 10 µM: Homo sapiens
# A498 = test: NCI 60 cell line screen, Renal; type: cell-based, human; settings: one dose 10 µM; for inhibition at 10 µM: Homo sapiens
# SF-539 = test: NCI 60 cell line screen, CNS; type: cell-based, human; settings: one dose 10 µM; for inhibition at 10 µM: Homo sapiens
# 786–0 = test: NCI 60 cell line screen, Renal; type: cell-based, human; settings: 786-0, one dose 10 µM; for inhibition at 10 µM: Homo sapiens
# SNB-75 = test: NCI 60 cell line screen, CNS; type: cell-based, human; settings: one dose 10 µM; for inhibition at 10 µM: Homo sapiens
# MDA-MB-435 = test: NCI 60 cell line screen, Melanoma; type: cell-based, human; settings: one dose 10 µM; for inhibition at 10 µM: Homo sapiens
# SF-295 = test: NCI 60 cell line screen, CNS; type: cell-based, human; settings: one dose 10 µM; for inhibition at 10 µM: Homo sapiens
# leukaemia panel = test: NCI 60 cell line one-dose screen, panel mean; type: cell-based; settings: Homo sapiens, one dose 10 μM, read-out: mean growth inhibition
# Experimental: The antiproliferative effects of selected compounds 33, 37 and 43 were initially evaluated in the NCI 60 cell line screen at 10 μM concentration (see Supplementary Materials Table S3).
# as §1
# UACC-257 = test: NCI 60 cell line screen, Melanoma; type: cell-based, human; settings: one dose 10 µM; for inhibition at 10 µM: Homo sapiens
# A549/A TCC = test: NCI 60 cell line screen, NSCLung; type: cell-based, human; settings: one dose 10 µM; for inhibition at 10 µM: Homo sapiens
# NCI-H460 = test: NCI 60 cell line screen, NSCLung; type: cell-based, human; settings: one dose 10 µM; for inhibition at 10 µM: Homo sapiens
# OVCAR-8 = test: NCI 60 cell line screen, Ovarian; type: cell-based, human; settings: one dose 10 µM; for inhibition at 10 µM: Homo sapiens
# HT29 = test: NCI 60 cell line screen, Colon; type: cell-based, human; settings: for inhibition at 10 µM: Homo sapiens, HT-29, one dose 10 µM; for Growth %: one dose 10 µM
# OVCAR-4 = test: NCI 60 cell line screen, Ovarian; type: cell-based, human; settings: one dose 10 µM; for inhibition at 10 µM: Homo sapiens
# HCT-15 = test: NCI 60 cell line screen, Colon; type: cell-based, human; settings: one dose 10 µM; for inhibition at 10 µM: Homo sapiens
# NCI-H23 = test: NCI 60 cell line screen, NSCLung; type: cell-based, human; settings: one dose 10 µM; for inhibition at 10 µM: Homo sapiens
# KM12 = test: NCI 60 cell line screen, Colon; type: cell-based, human; settings: one dose 10 µM; for inhibition at 10 µM: Homo sapiens
# SK-MEL-5 = test: NCI 60 cell line screen, Melanoma; type: cell-based, human; settings: one dose 10 µM; for inhibition at 10 µM: Homo sapiens
# DU-145 = test: NCI 60 cell line screen, Prostate; type: cell-based, human; settings: one dose 10 µM; for inhibition at 10 µM: Homo sapiens
# MDA-MB-468 = test: NCI 60 cell line screen, Breast; type: cell-based, human; settings: one dose 10 µM; for inhibition at 10 µM: Homo sapiens
# SR = test: NCI 60 cell line screen, Leukaemia; type: cell-based, human; settings: one dose 10 µM; for inhibition at 10 µM: Homo sapiens
# HOP-62 = test: NCI 60 cell line screen, NSCLung; type: cell-based, human; settings: one dose 10 µM; for inhibition at 10 µM: Homo sapiens
# UACC-62 = test: NCI 60 cell line screen, Melanoma; type: cell-based, human; settings: one dose 10 µM; for inhibition at 10 µM: Homo sapiens
# SW-620 = test: NCI 60 cell line screen, Colon; type: cell-based, human; settings: one dose 10 µM; for inhibition at 10 µM: Homo sapiens
# HOP-92 = test: NCI 60 cell line screen, NSCLung; type: cell-based, human; settings: one dose 10 µM; for inhibition at 10 µM: Homo sapiens
# TK-10 = test: NCI 60 cell line screen, Renal; type: cell-based, human; settings: one dose 10 µM; for inhibition at 10 µM: Homo sapiens
structure (smiles),measurement,setting,value
"COc1ccc(/C=C\c2cc(OC)c(OC)c(OC)c2)cc1O [CA-4, combretastatin A-4, reference compound]",MG-MID TGI,"NCI 60 cell line panel; 5-dose assay, 48 h, mean-graph midpoint",10300 nM
same,GI50,"NCI 60 cell line panel; Homo sapiens, 60 cell, 48 h, 5-dose assay, 48 h, mean-graph midpoint, read-out: MG-MID GI50",99 nM
"COc1ccc(C2N(c3cc(OC)c(OC)c(OC)c3)C(=O)C2(F)F)cc1F (centres unmarked) [Compound 43, 3,3-Difluoro-4-(3-fluoro-4-methoxyphenyl)-1-(3,4,5-trimethoxyphenyl)azetidin-2-one]",inhibition at 10 µM,HCT-116,94.2%
same,Growth %,HCT-116,5.76%
same,inhibition at 10 µM,MALME-3M,35.9%
same,Growth %,MALME-3M,64.09%
same,inhibition at 10 µM,MOLT-4,81.3%
same,Growth %,MOLT-4,18.67%
same,inhibition at 10 µM,ACHN,39.2%
same,Growth %,ACHN,60.82%
same,inhibition at 10 µM,HS 578T,78.1%
same,Growth %,HS 578T,21.93%
same,inhibition at 10 µM,RPMI-8226,79.2%
same,Growth %,RPMI-8226,20.78%
same,inhibition at 10 µM,A498,2.19%
same,Growth %,A498,97.81%
same,inhibition at 10 µM,SF-539,78.3%
same,Growth %,SF-539,21.65%
same,Growth %,786–0,75.35%
same,inhibition at 10 µM,786–0,24.6%
same,inhibition at 10 µM,SNB-75,35.3%
same,Growth %,SNB-75,64.74%
same,inhibition at 10 µM,MDA-MB-435,87.1%
same,Growth %,MDA-MB-435,12.92%
same,inhibition at 10 µM,SF-295,51.7%
same,Growth %,SF-295,48.29%
same,inhibition at 10 µM,leukaemia panel,86.3%
same,inhibition at 10 µM,UACC-257,50%
same,Growth %,UACC-257,50.01%
same,inhibition at 10 µM,A549/A TCC,51.4%
same,Growth %,A549/A TCC,48.65%
same,inhibition at 10 µM,NCI-H460,72.8%
same,Growth %,NCI-H460,27.15%
same,inhibition at 10 µM,OVCAR-8,55.9%
same,Growth %,OVCAR-8,44.07%
same,inhibition at 10 µM,HT29,88.8%
same,Growth %,HT29,11.16%
same,inhibition at 10 µM,OVCAR-4,41.7%
same,Growth %,OVCAR-4,58.34%
same,inhibition at 10 µM,HCT-15,80.6%
same,Growth %,HCT-15,19.44%
same,inhibition at 10 µM,NCI-H23,62.1%
same,Growth %,NCI-H23,37.86%
same,inhibition at 10 µM,KM12,77.1%
same,Growth %,KM12,22.9%
same,inhibition at 10 µM,SK-MEL-5,91.9%
same,Growth %,SK-MEL-5,8.08%
same,inhibition at 10 µM,"NCI 60 cell line panel; Homo sapiens, 60 cell",56.4%
same,mean Growth %,NCI 60 cell line panel,43.57%
same,inhibition at 10 µM,DU-145,74.8%
same,Growth %,DU-145,25.22%
same,inhibition at 10 µM,MDA-MB-468,55.5%
same,Growth %,MDA-MB-468,44.48%
same,inhibition at 10 µM,SR,81.3%
same,Growth %,SR,18.7%
same,inhibition at 10 µM,HOP-62,61.6%
same,Growth %,HOP-62,38.43%
same,inhibition at 10 µM,UACC-62,44.5%
same,Growth %,UACC-62,55.46%
same,inhibition at 10 µM,SW-620,78.8%
same,Growth %,SW-620,21.22%
same,inhibition at 10 µM,HOP-92,39.2%
same,Growth %,HOP-92,60.84%
same,inhibition at 10 µM,TK-10,-5.64%
same,Growth %,TK-10,105.64%
"CCOc1ccc(C2N(c3cc(OC)c(OC)c(OC)c3)C(=O)C2(F)F)cc1 (centres unmarked) [Compound 37, 4-(4-Ethoxyphenyl)-3,3-difluoro-1-(3,4,5-trimethoxyphenyl)azetidin-2-one]",inhibition at 10 µM,HCT-116,91.1%
same,Growth %,HCT-116,8.92%
same,inhibition at 10 µM,MALME-3M,36.9%
same,Growth %,MALME-3M,63.07%
same,inhibition at 10 µM,MOLT-4,81.9%
same,Growth %,MOLT-4,18.14%
same,inhibition at 10 µM,ACHN,44.8%
same,Growth %,ACHN,55.25%
same,inhibition at 10 µM,HS 578T,62.6%
same,Growth %,HS 578T,37.42%
same,inhibition at 10 µM,RPMI-8226,85.4%
same,Growth %,RPMI-8226,14.64%
same,inhibition at 10 µM,A498,7.7%
same,Growth %,A498,92.3%
same,inhibition at 10 µM,SF-539,89.2%
same,Growth %,SF-539,10.75%
same,Growth %,786–0,64.68%
same,inhibition at 10 µM,786–0,35.3%
same,inhibition at 10 µM,SNB-75,44.1%
same,Growth %,SNB-75,55.93%
same,inhibition at 10 µM,MDA-MB-435,83.2%
same,Growth %,MDA-MB-435,16.83%
same,inhibition at 10 µM,SF-295,43.7%
same,Growth %,SF-295,56.32%
same,inhibition at 10 µM,leukaemia panel,91.4%
same,inhibition at 10 µM,UACC-257,41.3%
same,Growth %,UACC-257,58.69%
same,inhibition at 10 µM,A549/A TCC,66.4%
same,Growth %,A549/A TCC,33.56%
same,inhibition at 10 µM,NCI-H460,87.3%
same,Growth %,NCI-H460,12.73%
same,inhibition at 10 µM,OVCAR-8,56.8%
same,Growth %,OVCAR-8,43.23%
same,inhibition at 10 µM,HT29,87.7%
same,Growth %,HT29,12.27%
same,inhibition at 10 µM,OVCAR-4,50.4%
same,Growth %,OVCAR-4,49.59%
same,inhibition at 10 µM,HCT-15,77.5%
same,Growth %,HCT-15,22.55%
same,inhibition at 10 µM,NCI-H23,66.4%
same,Growth %,NCI-H23,33.57%
same,inhibition at 10 µM,KM12,72%
same,Growth %,KM12,27.97%
same,inhibition at 10 µM,SK-MEL-5,93.2%
same,Growth %,SK-MEL-5,6.76%
same,inhibition at 10 µM,"NCI 60 cell line panel; Homo sapiens, 60 cell",59%
same,mean Growth %,NCI 60 cell line panel,41.05%
same,inhibition at 10 µM,DU-145,70%
same,Growth %,DU-145,30.05%
same,inhibition at 10 µM,MDA-MB-468,65.1%
same,Growth %,MDA-MB-468,34.89%
same,inhibition at 10 µM,SR,83.8%
same,Growth %,SR,16.25%
same,inhibition at 10 µM,HOP-62,59.2%
same,Growth %,HOP-62,40.81%
same,inhibition at 10 µM,UACC-62,48.4%
same,Growth %,UACC-62,51.61%
same,inhibition at 10 µM,SW-620,74.5%
same,Growth %,SW-620,25.47%
same,inhibition at 10 µM,HOP-92,44.4%
same,Growth %,HOP-92,55.62%
same,inhibition at 10 µM,TK-10,-3.32%
same,Growth %,TK-10,103.32%

# From publication PMC9501633, “Synthesis, Characterisation and Mechanism of Action of Anticancer 3-Fluoroazetidin-2-ones” (Pharmaceuticals, 2022)
